Experimental data as given in article PMC9602792, “Preclinical evaluation of the epithelial sodium channel inhibitor AZD5634 and implications on human translation” (American Journal of Physiology - Lung Cellular and …, 2022).

Molecular target: T1, ENaC (Homo sapiens, UniProt P37088+P51168+P51170)
T1 construct: host or cells: primary normal human bronchial epithelial cells, ALI culture
T1 sequence (P37088 1-669): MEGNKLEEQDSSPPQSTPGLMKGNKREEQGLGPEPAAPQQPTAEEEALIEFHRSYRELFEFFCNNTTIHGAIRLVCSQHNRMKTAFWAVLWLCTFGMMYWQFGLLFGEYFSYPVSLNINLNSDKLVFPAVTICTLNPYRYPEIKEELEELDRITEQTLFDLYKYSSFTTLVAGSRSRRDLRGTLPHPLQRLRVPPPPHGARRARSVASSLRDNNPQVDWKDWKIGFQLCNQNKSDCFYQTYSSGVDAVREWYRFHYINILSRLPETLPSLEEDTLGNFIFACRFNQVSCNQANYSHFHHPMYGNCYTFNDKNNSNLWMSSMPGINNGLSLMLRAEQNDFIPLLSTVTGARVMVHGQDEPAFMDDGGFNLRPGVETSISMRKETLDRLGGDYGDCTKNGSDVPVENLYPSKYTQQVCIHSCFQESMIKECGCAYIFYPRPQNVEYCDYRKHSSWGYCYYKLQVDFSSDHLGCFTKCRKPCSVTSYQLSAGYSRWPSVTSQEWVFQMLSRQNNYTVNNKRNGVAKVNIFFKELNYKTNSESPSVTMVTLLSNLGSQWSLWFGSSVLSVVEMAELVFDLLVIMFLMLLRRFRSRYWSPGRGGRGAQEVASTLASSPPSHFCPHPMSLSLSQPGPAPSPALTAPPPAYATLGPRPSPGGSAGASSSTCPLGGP
T1 sequence (P51168 1-640): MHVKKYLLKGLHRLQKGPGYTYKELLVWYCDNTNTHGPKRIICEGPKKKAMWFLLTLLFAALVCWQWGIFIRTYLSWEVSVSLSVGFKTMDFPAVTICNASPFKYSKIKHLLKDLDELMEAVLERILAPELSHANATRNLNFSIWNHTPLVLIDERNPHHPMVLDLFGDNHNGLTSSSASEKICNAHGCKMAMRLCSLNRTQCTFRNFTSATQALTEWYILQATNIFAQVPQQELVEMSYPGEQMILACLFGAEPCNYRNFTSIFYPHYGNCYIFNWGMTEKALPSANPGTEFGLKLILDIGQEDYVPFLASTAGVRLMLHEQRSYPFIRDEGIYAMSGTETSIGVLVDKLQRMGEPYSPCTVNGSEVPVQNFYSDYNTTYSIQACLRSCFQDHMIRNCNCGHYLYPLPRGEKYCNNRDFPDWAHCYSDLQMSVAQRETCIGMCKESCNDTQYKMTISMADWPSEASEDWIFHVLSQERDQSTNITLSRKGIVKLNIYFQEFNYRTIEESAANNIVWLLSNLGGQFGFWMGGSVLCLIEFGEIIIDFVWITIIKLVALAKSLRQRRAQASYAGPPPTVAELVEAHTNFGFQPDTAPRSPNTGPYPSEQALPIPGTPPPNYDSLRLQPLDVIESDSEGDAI
T1 sequence (P51170 1-649): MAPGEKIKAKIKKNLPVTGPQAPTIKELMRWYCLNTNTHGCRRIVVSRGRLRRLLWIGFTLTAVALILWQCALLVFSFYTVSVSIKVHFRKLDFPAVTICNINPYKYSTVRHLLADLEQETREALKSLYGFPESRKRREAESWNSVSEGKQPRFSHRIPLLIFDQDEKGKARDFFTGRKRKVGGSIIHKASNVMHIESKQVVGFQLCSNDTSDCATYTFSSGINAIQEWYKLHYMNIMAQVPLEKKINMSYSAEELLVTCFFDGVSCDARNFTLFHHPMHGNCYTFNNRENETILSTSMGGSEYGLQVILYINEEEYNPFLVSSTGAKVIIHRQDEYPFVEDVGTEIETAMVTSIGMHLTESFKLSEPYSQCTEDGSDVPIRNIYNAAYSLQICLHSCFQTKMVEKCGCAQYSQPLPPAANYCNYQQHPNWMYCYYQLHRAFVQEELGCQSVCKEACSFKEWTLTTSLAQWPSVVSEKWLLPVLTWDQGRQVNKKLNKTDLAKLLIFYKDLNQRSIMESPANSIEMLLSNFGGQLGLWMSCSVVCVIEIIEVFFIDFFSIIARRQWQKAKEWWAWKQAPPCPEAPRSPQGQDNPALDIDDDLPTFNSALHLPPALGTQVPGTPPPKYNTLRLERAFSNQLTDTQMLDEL
Assay: Ussing chamber Isc in F508del-homozygous CF HBEC cultures
Format: cell-based
Procedure: Using previously described techniques ([2], [37]), epithelial cells were harvested from excised lung tissue derived from CF donors homozygous for F508del CFTR, expanded, and grown until confluency was attained. […] To stimulate fresh mucus secretion and formation of an even ASL layer, the cells were washed 48–72 h before experimentation with PneumaCult ALI media (80 µL), added apically, and then aspirated following 30–45 min incubation at 37°C. The washing process was repeated with a 15-min incubation period and the mucus layer was allowed to reestablish, after which the cells were treated with 1 µL of AZD5634 (1 µM, apical), alone and in combination with lumacaftor and ivacaftor (luma/iva; 3 µM/10 µM, basolateral). PBS (1% DMSO, apical) served as a vehicle control. […] Only passage 1 and 2 monolayers were used for these studies.
CFTR-dependent ion transport electrophysiology was measured in HBEC cultures by Isc using modified P2300 Ussing chambers (Physiologic Instruments, San Diego, CA) as previously described ([37], [38]). […] All chambers were maintained at 37°C and agonist stimulation was initiated within 15 min of placement in the chambers.
Descriptive statistics were calculated and means compared using unpaired or paired t tests, or ANOVA, with post hoc analyses conducted for multiple comparisons where appropriate. For analyses of functional anatomy of en bloc trachea, a mixed linear model was used that corrected for within-animal correlation. All tests were two-sided and were computed using GraphPad Prism (GraphPad Software, Inc., La Jolla, CA). P-values <0.05 were considered significant. Statistics are reported as means ± SE, unless indicated otherwise.

- incremental Isc change (at 100 nM): −2.7 ± 1.5
- cumulative ΔIsc (at the maximum concentration (10,000 nM)): −12.1 ± 3.5
SMILES: NC(=NCc1ccccc1)NC(=O)c1nc(Cl)c(N)nc1N [benzamil, reference compound]
